Measured values as given in patent US12122848B2, “Compositions and methods for treating fibroids” (THE LUNDQUIST INSTITUTE FOR BIOMEDICAL INNOVATION AT …, priority 2020, dated 2024).
“Also recorded” adds a separate entry of the source. Values belong to the compound of their own block, whether it stands above or below them.

Key:
leiomyoma explants [1] = assay: Preliminary experiment: leiomyoma explants implanted subcutaneously in ovariectomized CB-17 scid/beige mice; type: in vivo; details: 8 mg/Kg daily via IP, 8 weeks
Procedure: This example also performed a preliminary experiment using freshly collected leiomyoma explants implanted subcutaneously on the flank of ovariectomized CB-17 scid/beige female mice (N=2), and treated with vehicle or TDO2 inhibitor (680C91; 8 mg/Kg daily via IP) for 8 weeks. After sacrifice, plasma was collected and analyzed for blood chemistry panel (Abaxis).

[2] = tested on: MSMC (myometrial smooth muscle cells) spheroids; assay: Cell proliferation in MSMC spheroids, CellTiter-Glo 3D Cell Viability Assay; type: cell-based, human
Procedure: (§1) Isolated MSMC and LSMC were plated in 6-well (1×10^5 cells/well) or 96-well (5×10^3 cells/well) plates which were coated with 0.5% agarose gel and incubated 48 hours for spheroids formation.
(§2) The concentrations of inhibitors used was based on earlier studies and the cell proliferation was determined using the CellTiter-Glo 3D Cell Viability Assay (Promega, Madison, WI) according to the manufacturer's protocol. The assay was performed in six replicates per condition and repeated four times using cells isolated from four different patients.

LSMC spheroids [3] = assay: Immunoblotting of ECM and inflammation proteins in LSMC spheroids after inhibitor treatment; type: cell-based, human
Procedure: Total protein isolated from paired tissue samples and MSMC and LSMC spheroids following treatment conditions was subjected to immunoblotting. Briefly, samples were suspended in RIPA buffer containing 1 mM EDTA and EGTA (Boston BioProducts, Ashland, MA) supplemented with 1 mM PMSF and a complete protease inhibitor mixture (Roche Diagnostics, Indianapolis, IN), sonicated, and centrifuged at 4° C. for 10 min at 14,000 rpm. The concentration of protein was determined using the BCA™ Protein Assay Kit (Thermo Scientific Pierce, Rockford, IL). Equal aliquots (thirty micrograms) of total protein for each sample was denatured with SDS-PAGE sample buffer and separated by electrophoresis on a SDS polyacrylamide gel. After transferring the samples to a nitrocellulose membrane, the membrane was blocked with TBS-Tween+5% milk and probed with the following primary antibodies: IDO1 (Cell Signaling Technology, Danvers, MA), TDO2, COL3A1 (Proteintech Group, Inc, Chicago, Illinois) and COL1A1 (Fitzgerald Industries Intl, Acton, MA). The membranes were washed with TBS containing 0.1% Tween-20 wash buffer after each antibody incubation cycle. SuperSignal West Pico Chemiluminescent Substrate™ (Thermo Scientific Pierce) was used for detection, and photographic emulsion was used to identify the protein bands, which were subsequently quantified by densitometry. The membranes were also stripped and probed with glyceraldehyde 3-phosphate dehydrogenase (GAPDH) antibody (Santa Cruz Biotechnology, Santa Cruz, CA) serving as the loading control. The densities of the specific protein bands were determined using image J program (imagej.nih.gov/ij/), normalized to GAPDH or a band obtained from staining the membrane with Ponceau S. Results were expressed as means±SEM as a ratio relative to the control group designated as 1.
as §1

[4] = tested on: LSMC (leiomyoma smooth muscle cells) spheroids; assay: Cell proliferation in LSMC spheroids, CellTiter-Glo 3D Cell Viability Assay; type: cell-based, human
Procedure: as §1, §2

leiomyoma explants [5] = assay: In vivo experiment: leiomyoma explants implanted subcutaneously in ovariectomized CB-17 scid/beige mice; details: 10 mg/Kg daily, i.p., 8 weeks
Procedure: FIG. 7A-E. (A) Representative of the gross appearance of leiomyoma specimens (arrow) implanted subcutaneously in CB-17 SCID/Beige female mice following 8 weeks treatment of vehicle (left) or TDO2 inhibitor (right; 680C91; 10 mg/Kg daily via IP). (B) The relative explants weight between vehicle and 680C91 treated group after 8 weeks treatment (n=6). The ratio of plasma kynurenine vs tryptophan levels was shown in (C). (D) QRT-PCR analysis of COL1A1, FN1, DNMT1 and CCND1 expression in explants (n=6) implanted subcutaneously after 8 weeks treatment of vehicle or TDO2 inhibitor. (E) Paraformaldehyde-fixed paraffin-embedded xenograft explants of vehicle (a) or TDO2 inhibitor (b) stained with Masson's Trichrome reagent. […] The results are presented as mean±SEM with P values (*:p<0.05) indicated by corresponding lines.
We also performed the in vivo experiment using freshly collected leiomyoma explants implanted subcutaneously in the flank of ovariectomized CB-17 scid/beige female mice (N=6), and treated with vehicle or TDO2 inhibitor (680C91; 10 mg/Kg daily, i.p.) for 8 weeks (FIG. 7A). After sacrifice, the explants weight was determined and the collected plasma was analyzed for levels of tryptophan, kynurenine and blood chemistry panel (Abaxis).

leiomyoma explants [6] = assay: CYP1B1 expression in leiomyoma explants (AhR signaling marker); type: cell-based, human; details: fresh leiomyoma explants, 48 hours; kynurenine 100 μM, tryptophan different doses (mM), 680C91 50 μM
leiomyoma explants [7] = assay: COL1A1 and COL3A1 in culture-conditioned media of leiomyoma explants; type: cell-based, human; details: fresh leiomyoma explants, different doses, 48 hours, N=2
Procedure: FIG. 5A-F. (A) Representative images of COL1A1 and COL3A1 in culture-conditioned media of leiomyoma explants after treatment with different doses of TDO2 inhibitor, 680C91 for 48 hours (N=2). An equal volume of conditioned media was used, and a Ponceau S-stained protein band on the nitrocellulose membrane was used as a loading control. (B) The effect of DMSO (control) and E2+P4 (10^−8M each) after 48 hours of culture on the expression of IDO1 and TDO2 in LSMC spheroids (N=2). (C) Representative western blot analysis of TDO2 following transfection of LSMC spheroids with anti-miR-200c oligonucleotides for 96 hrs. […] (E-F) QRT-PCR analysis of TDO2 (E), miR-29c and miR-200c (F) in LSMC spheroids after transfection of siRNA negative control (siNC) or TDO2 siRNA oligonucleotides (siTDO2) for 96 hours (N=3). The results are presented as mean±SEM with P values (*:p<0.05) indicated by corresponding lines.
Using fresh leiomyoma explants, we confirmed that the expression of COL1A1 and COL3A1 was decreased in culture-conditioned media following treatment with different doses of TDO2 inhibitor, 680C91 (FIG. 5A).

LSMC spheroids [8] = assay: Kynurenine treatment of LSMC spheroids, expression of AhR, IDO1, TDO2 and COL1A1; type: cell-based, human; details: 100 μM, 72 hours, N=2
Procedure: FIG. 6A-D. (A) The relative (mean±SEM) expression of CYP1B1 in paired (N=43) myometrium (Myo) and leiomyoma (Lyo). (B) Representative images show the levels of AhR and ARNT in fresh subfractionated cytoplasmic (Cyto) and nuclear (Nu) phase from myometrium (Myo) and paired leiomyoma (Lyo) with Calpain 1 and Lamin B1 served as markers for the respective subcellular fractions (N=3). (C) Representative images of CYP1B1 in leiomyoma explants after treatment with kynurenine (100 μM), different doses of tryptophan (mM) and TDO2 inhibitor (680C91, 50 μM) for 48 hours with a Ponceau S-stained protein band on the nitrocellulose membrane used as a loading control (N=2). (D) The effect of kynurenine (KYN, 100 μM) treatment for 72 hours on the expression of AhR, IDO1, TDO2 and COL1A1 in LSMC spheroids (N=2). The results are presented as mean±SEM with P values (*:p<0.05) indicated by corresponding lines.
Using fresh leiomyoma explants we confirmed that the expression of CYP1B1 was increased by the treatment of kynurenine (Kyn) and tryptophan, while decreased following TDO2 inhibitor treatment (FIG. 6C).

[9] = Example 3, various concentrations, 48 hours, n=4
[10] = Example 2, different doses, 48 h
[11] = Example 3, 48 hours, different concentrations

effects on food consumption (leiomyoma explants [1]): no effects
effects on food consumption (leiomyoma explants [5]): no effects
expression of CYP1B1 (leiomyoma explants [6]): decreased
Compound: Fc1ccc2c(/C=C/c3cccnc3)c[nH]c2c1 [Compound 680C91, 6-Fluoro-3-[(1E)-2-(3-pyridinyl)ethenyl]-1H-indole]
TDO2 expression (leiomyoma explants [1]): down-regulated
effects on body weight (leiomyoma explants [1]): no effects
expression of COL1A1 (leiomyoma explants [1]): down-regulated
expression of MyD88 (leiomyoma explants [1]): down-regulated
expression of TGF-β3 (leiomyoma explants [1]): down-regulated
tumor size (leiomyoma explants [1]; N=2): reduced
adverse effects on blood chemistry including liver and renal panels (leiomyoma explants [1]; plasma): no adverse effects
cell proliferation ([2]; Example 2): significantly suppressed
spheroids cell proliferation [2, 9]: significantly repressed
protein expression of COL3A1 (LSMC spheroids [3]; [10]): down-regulated dose dependently
protein expression of IKBKB (LSMC spheroids [3]; [10]): down-regulated dose dependently
protein expression of fibronectin (LSMC spheroids [3]; [10]): down-regulated dose dependently
expression of COL1A1 (LSMC spheroids [3]; [11]): significantly reduced; also recorded: significantly repressed
expression of COL3A1 (LSMC spheroids [3]; [11]): significantly reduced; also recorded: significantly repressed
cell proliferation ([4]; Example 2): significantly suppressed
spheroids cell proliferation [4, 9]: significantly inhibited; also recorded: significantly repressed
effects on body weight (leiomyoma explants [5]): no effects
explants weight (leiomyoma explants [5]; N=6): lower weight
expression of CCND1 (leiomyoma explants [5]; explants, QRT-PCR): down-regulated
expression of COL1A1 (leiomyoma explants [5]; explants, QRT-PCR): down-regulated
expression of DNMT1 (leiomyoma explants [5]; explants, QRT-PCR): down-regulated
expression of FN1 (leiomyoma explants [5]; explants, QRT-PCR): down-regulated
adverse effects on blood chemistry including liver and renal panels (leiomyoma explants [5]; plasma): no adverse effects
ratio of kynurenine/tryptophan (leiomyoma explants [5]; plasma): decreased
deposition of collagens, keratin and cytoplasm, Masson's Trichrome staining (leiomyoma explants [5]; xenograft explants): less deposition
expression of COL1A1 in culture-conditioned media (leiomyoma explants [7]): decreased
expression of COL3A1 in culture-conditioned media (leiomyoma explants [7]): decreased

expression of CYP1B1 (leiomyoma explants [6]): increased
Compound: Nc1ccccc1C(=O)CC(N)C(=O)O (stereo not drawn) [kynurenine]
expression of AhR (LSMC spheroids [8]): increase
expression of COL1A1 (LSMC spheroids [8]): increase
expression of IDO1 (LSMC spheroids [8]): increase
expression of TDO2 (LSMC spheroids [8]): increase

expression of CYP1B1 (leiomyoma explants [6]): increased
Compound: N[C@@H](Cc1c[nH]c2ccccc12)C(=O)O [tryptophan]
